# Results published in ChEMBL document CHEMBL1201862, “PubChem BioAssay data set” (2004).
#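 Step 1: Grow cells in 96-well plates. Step 2: Expose to compound for 48 hours at 5 concentrations. Step 3: Interpolate endpoints linearly; if unreached, use highest concentration. Abbreviation: GI50, concentration required for 50% inhibition of growth.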 Activity calls are given as the source filed them. Cut-off read from the data, not from the text of the source: active = GI50 up to about 1.1 µM and inactive = higher.
# Columns and labels:
# Test in all cases: NCI tumour cell line growth inhibition, 48 h
# [1] = test system: Malme-3M
# [2] = test system: OVCAR-3
# [3] = test system: KM12
# [4] = test system: IGROV-1
# [5] = test system: SNB-75
# [6] = test system: A498
# [7] = test system: CCRF-CEM
# [8] = test system: K562
# [9] = test system: SF-539
# [10] = test system: HCT-116
# [11] = test system: NCI-H522
# [12] = test system: MOLT-4
# [13] = test system: SF-268
# [14] = test system: EKVX
# [15] = test system: HOP-62
# [16] = test system: T47D
# [17] = test system: NCI-H226
# [18] = test system: LOX IMVI
# [19] = test system: CAKI-1
# [20] = test system: UACC-257
# [21] = test system: NCI-H23
# [22] = test system: HT-29
# [23] = test system: OVCAR-8
# [24] = test system: SR
# [25] = test system: M14
# [26] = test system: SK-MEL-5
# [27] = test system: HCT-15
# [28] = test system: NCI/ADR-RES
# [29] = test system: MDA-N
# [30] = test system: SK-OV-3
# [31] = test system: HL-60
# [32] = test system: MDA-MB-231
# [33] = test system: MCF7
# [34] = test system: ACHN
# [35] = test system: A549
# [36] = test system: SK-MEL-28
# [37] = test system: OVCAR-4
# [38] = test system: HOP-92
# [39] = test system: NCI-H460
# [40] = test system: SK-MEL-2
# [41] = test system: 786-0
# [42] = test system: SNB-19
# [43] = test system: UACC-62
# [44] = test system: PC-3
# [45] = test system: DU-145
# [46] = test system: MDA-MB-435
# [47] = test system: HCC 2998
# [48] = test system: OVCAR-5
# [49] = test system: TK-10
# [50] = test system: SW-620
# [51] = test system: SF-295
# [52] = test system: RPMI-8226
# [53] = test system: COLO 205
# [54] = test system: Hs-578T
# [55] = test system: UO-31
# [56] = test system: RXF 393
# [57] = test system: SN12C
# [58] = test system: U-251
compound,measurement,setting,value
O=[N+]([O-])/C(C(Cl)=C(Cl)Cl)=C(/Cl)Sc1ccccc1,GI50,[1],1.6 µM (inactive)
same,GI50,[2],2.05 µM (inactive)
same,GI50,[3],17.9 µM (inactive)
same,GI50,[4],2.01 µM (inactive)
same,GI50,[5],15 µM (inactive)
same,GI50,[6],2 µM (inactive)
same,GI50,[7],0.185 µM (active)
same,GI50,[8],0.59 µM (active)
same,GI50,[9],1.99 µM (inactive)
same,GI50,[10],1.31 µM (inactive)
same,GI50,[11],1.23 µM (inactive)
same,GI50,[12],0.361 µM (active)
same,GI50,[13],2.29 µM (inactive)
same,GI50,[14],15.6 µM (inactive)
same,GI50,[15],3.54 µM (inactive)
same,GI50,[16],3.03 µM (inactive)
same,GI50,[17],7.76 µM (inactive)
same,GI50,[18],1.87 µM (inactive)
same,GI50,[19],2.51 µM (inactive)
same,GI50,[20],1.25 µM (inactive)
same,GI50,[21],1.77 µM (inactive)
same,GI50,[22],2.24 µM (inactive)
same,GI50,[23],0.255 µM (active)
same,GI50,[24],0.378 µM (active)
same,GI50,[25],1.82 µM (inactive)
same,GI50,[26],2.12 µM (inactive)
same,GI50,[27],2.15 µM
same,GI50,[28],1.08 µM (active)
same,GI50,[29],1.59 µM (inactive)
same,GI50,[30],20.1 µM (inactive)
same,GI50,[31],0.139 µM (active)
same,GI50,[32],1.86 µM (inactive)
same,GI50,[33],1.43 µM (inactive)
same,GI50,[34],2.08 µM (inactive)
same,GI50,[35],3.6 µM (inactive)
same,GI50,[36],1.72 µM (inactive)
same,GI50,[37],1.62 µM (inactive)
same,GI50,[38],2.05 µM (inactive)
same,GI50,[39],17.1 µM (inactive)
same,GI50,[40],13.3 µM (inactive)
same,GI50,[41],1.31 µM (inactive)
same,GI50,[42],17.7 µM (inactive)
same,GI50,[43],1.8 µM (inactive)
same,GI50,[44],2.26 µM (inactive)
same,GI50,[45],3.32 µM (inactive)
same,GI50,[46],1.86 µM (inactive)
same,GI50,[47],2.7 µM (inactive)
same,GI50,[48],2 µM (inactive)
same,GI50,[49],2.67 µM (inactive)
same,GI50,[50],0.307 µM (active)
same,GI50,[51],20 µM (inactive)
same,GI50,[52],0.306 µM (active)
same,GI50,[53],1.23 µM (inactive)
same,GI50,[54],3.15 µM (inactive)
same,GI50,[55],1.42 µM (inactive)
same,GI50,[56],2.62 µM (inactive)
same,GI50,[57],1.81 µM (inactive)
same,GI50,[58],2.25 µM (inactive)
CN(C)C1C(=O)C(C(N)=O)=C(O)C2(O)C(O)=C3C(=O)c4c(O)cccc4C(C)(O)C3CC12 (stereo not drawn),GI50,[1],67.3 µM (inactive)
same,GI50,[3],73.8 µM (inactive)
same,GI50,[4],52.8 µM (inactive)
same,GI50,[6],43.8 µM (inactive)
same,GI50,[11],78 µM (inactive)
same,GI50,[17],82.6 µM (inactive)
same,GI50,[18],33.7 µM (inactive)
same,GI50,[19],38.7 µM (inactive)
same,GI50,[20],> 100 µM (inactive)
same,GI50,[27],50.5 µM
same,GI50,[28],76.4 µM (inactive)
same,GI50,[30],76.6 µM (inactive)
same,GI50,[35],60.8 µM (inactive)
same,GI50,[36],93.5 µM (inactive)
same,GI50,[38],> 100 µM (inactive)
same,GI50,[39],52 µM (inactive)
same,GI50,[44],> 100 µM (inactive)
same,GI50,[45],68.4 µM (inactive)
same,GI50,[48],> 100 µM (inactive)
same,GI50,[56],43.6 µM (inactive)
